Assay results from patent US20250043299A1, “POINT MUTATIONS THAT BOOST AROMATIC AMINO ACID PRODUCTION AND CO2 ASSIMILATION IN PLANTS” (Wisconsin Alumni Research Foundation, priority 2021, published 2025).
pIC50: −log10 of the molar value.

Legend:
DHS1^WT = target: T1, DHS1^WT (Arabidopsis thaliana, UniProt P29976); test: DHS enzyme assay (colorimetric), recombinant DHS1^WT; type: biochemical
T1 construct: without the predicted plastid transit peptide (amino acid residues; 49-525, 34-507, and 52-527, respectively); made in house; host or cells: E. coli Rosetta-2
T1 sequence (P29976 49-525): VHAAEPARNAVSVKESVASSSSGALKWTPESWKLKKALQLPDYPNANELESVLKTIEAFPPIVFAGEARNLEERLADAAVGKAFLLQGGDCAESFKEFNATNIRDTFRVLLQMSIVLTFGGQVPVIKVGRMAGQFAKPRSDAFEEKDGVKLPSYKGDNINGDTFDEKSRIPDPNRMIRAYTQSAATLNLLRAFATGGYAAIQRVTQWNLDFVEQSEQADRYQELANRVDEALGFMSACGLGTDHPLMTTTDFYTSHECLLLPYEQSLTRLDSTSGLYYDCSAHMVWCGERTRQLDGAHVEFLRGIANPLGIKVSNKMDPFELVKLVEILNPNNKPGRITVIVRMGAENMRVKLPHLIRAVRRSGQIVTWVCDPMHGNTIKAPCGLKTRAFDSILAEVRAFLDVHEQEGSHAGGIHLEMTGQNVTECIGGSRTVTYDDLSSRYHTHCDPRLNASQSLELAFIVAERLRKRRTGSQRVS
Method: (§1) To generate recombinant DHS proteins the pET28a vectors carrying the A. thaliana DHS1 (AtDHS1), AtDHS2, or AtDHS3 WT sequence without the predicted plastid transit peptide (amino acid residues; 49-525, 34-507, and 52-527, respectively) were expressed in E. coli Rosetta-2 cells and purified using Ni-affinity chromatography, exactly as was conducted previously (9). To generate DHS proteins with individual sota mutations via site-directed mutagenesis, these pET28a plasmid templates were diluted by 500-fold, mixed with 0.04 U/μL Phusion DNA polymerase (Thermo Scientific), 0.2 mM deoxynucleoside triphosphates (dNTPs), 1× Phusion reaction buffer (Thermo Scientific), and 0.5 μM forward and reverse mutagenesis primers (Table 10). The PCR reaction was run using the following protocol: 98° C. for 30 s followed by 20 cycles of 10 s at 98° C., 20 s at 70° C., 4.5 min at 72° C. with a final extension at 72° C. for 10 min. The PCR products were purified using a QIAquick Gel Extraction Kit (QIAGEN), treated with FastDigest DpnI (Thermo Scientific) to digest methylated plasmid template DNA for 20 min at 37° C., and transformed into E. coli cells. The mutagenized pET28a plasmids were sequenced to confirm that no errors were introduced during the mutagenesis process.
(§2) The DHS enzyme assays were conducted using the colorimetric method that we recently described (9). Briefly, the enzyme solution (7.7 μl) containing 50 mM Hepes (pH 7.4) was preincubated with an effector molecule(s) at room temperature for 15 min. For assays using recombinant protein and enzyme fractions isolated from plant leaves, 0.01 to 0.1 μg and approximately 50 μg of proteins were used, respectively. After adding 0.5 μl of 0.1 M dithiothreitol, the samples were further incubated at room temperature for 15 min. During these incubations, the substrate solution containing 50 mM Hepes (pH 7.4), 2 mM MnCl2, 4 mM E4P, and 4 mM PEP at final concentration was preheated at 37° C. The enzyme reaction was started by adding 6.8 μl of the substrate solution, then incubated at 37° C. for 30 min, and terminated by adding 30 μl of 0.6 M trichloroacetic acid. After a brief centrifugation, 5 μl of 200 mM NaIO4 (sodium meta-periodate) in 9 N H3PO4 was added to oxidize the enzymatic product and to incubate at 25° C. for 20 min. To stop the oxidation reaction, 20 μl of 0.75 M NaAsO2 (sodium arsenite), which was dissolved in 0.5 M Na2SO4 and 0.05 M H2SO4, was added and immediately mixed. After 5 min of incubation at room temperature, one-third of the sample solution was transferred to a new tube to be mixed with 50 μl of 40 mM thiobarbituric acid and incubated at 99° C. for 15 min in a thermal cycler. The mixture was added to 600 μl of cyclohexanone in eight-strip solvent-resistant plastic tubes, mixed vigorously, and centrifuged at 4500 g for 3 min to separate water- and cyclohexanone-based layers for the extraction off the developed pink chromophore. The absorbance of the pink supernatant was read at 549 nm with the microplate reader (Infinite 200 PRO, TECAN) to calculate DAHP production with the molar extinction coefficient at 549 nm (ε=549 nm) of 4.5×10^4 M^−1 cm^−1. Reaction mixtures with boiled enzymes were run in parallel and used as negative controls to estimate the background signal.

DHS2^WT = target: T2, DHS2^WT (Arabidopsis thaliana, UniProt Q00218); test: DHS enzyme assay, recombinant DHS2^WT; type: biochemical
T2 construct: without the predicted plastid transit peptide (amino acid residues; 49-525, 34-507, and 52-527, respectively); made in house; host or cells: E. coli Rosetta-2
T2 sequence (Q00218 34-507): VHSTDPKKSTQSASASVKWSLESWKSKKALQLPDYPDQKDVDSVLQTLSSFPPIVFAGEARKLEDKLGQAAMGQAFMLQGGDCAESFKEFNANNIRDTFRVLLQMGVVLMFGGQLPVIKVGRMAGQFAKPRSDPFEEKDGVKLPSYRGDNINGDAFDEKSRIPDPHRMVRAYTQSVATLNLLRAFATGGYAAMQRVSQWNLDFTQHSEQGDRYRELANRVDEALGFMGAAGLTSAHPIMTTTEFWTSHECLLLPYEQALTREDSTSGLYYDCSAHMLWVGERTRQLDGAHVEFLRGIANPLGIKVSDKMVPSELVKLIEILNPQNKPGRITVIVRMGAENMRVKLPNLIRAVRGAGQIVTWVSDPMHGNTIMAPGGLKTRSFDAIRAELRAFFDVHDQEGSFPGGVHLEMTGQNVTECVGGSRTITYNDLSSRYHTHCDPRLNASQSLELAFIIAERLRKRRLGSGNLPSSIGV
Method: as §1, §2

DHS2^A4 = target: T3, DHS2^A4 (Arabidopsis thaliana, UniProt Q00218, G222S); type: biochemical; settings: effector up to 1 mM
T3 construct: without the predicted plastid transit peptide (amino acid residues; 49-525, 34-507, and 52-527, respectively); made in house; host or cells: E. coli
T3 sequence (Q00218 34-507 G222S): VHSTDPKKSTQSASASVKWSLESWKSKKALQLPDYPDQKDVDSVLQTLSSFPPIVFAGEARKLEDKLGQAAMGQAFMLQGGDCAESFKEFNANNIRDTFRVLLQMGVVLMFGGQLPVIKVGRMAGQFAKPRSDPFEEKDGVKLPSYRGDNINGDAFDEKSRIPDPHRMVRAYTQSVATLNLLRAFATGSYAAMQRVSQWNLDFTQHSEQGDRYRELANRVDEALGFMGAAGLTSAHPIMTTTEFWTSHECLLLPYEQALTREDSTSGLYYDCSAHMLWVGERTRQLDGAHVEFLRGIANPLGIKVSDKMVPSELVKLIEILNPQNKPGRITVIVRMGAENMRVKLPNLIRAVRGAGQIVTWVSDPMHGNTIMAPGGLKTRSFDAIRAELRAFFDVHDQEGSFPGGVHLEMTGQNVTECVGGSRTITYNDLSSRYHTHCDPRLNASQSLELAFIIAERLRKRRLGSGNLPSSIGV
Method: as §1, §2

[1] = target: T4, Arabidopsis thaliana DHS2 (SEQ ID NO:2) variant DHS2^A4 (sotaA4), G222S (Arabidopsis thaliana, UniProt Q00218, G222S); test: biochemical; type: biochemical; settings: up to 1 mM Tyr, Trp (FIG. 2C); shikimate, arogenate, prephenate at 1 mM (FIG. 21A)
T4 construct: without the predicted plastid transit peptide (amino acid residues; 49-525, 34-507, and 52-527, respectively); made in house; host or cells: E. coli
T4 sequence (Q00218 34-507 G222S): as above
Method: as §1, §2

[2] = target: T5, Arabidopsis thaliana DHS2 (AtDHS2), wild type (DHS2^WT), SEQ ID NO:2 (Arabidopsis thaliana, UniProt Q00218); settings: reference 9; cited from earlier work
T5 construct: without the predicted plastid transit peptide (amino acid residues; 49-525, 34-507, and 52-527, respectively); made in house; host or cells: E. coli Rosetta-2
T5 sequence (Q00218 34-507): as the sequence (Q00218 34-507) above

DHS1^B4 = target: T6, DHS1^B4 (Arabidopsis thaliana, UniProt P29976, G244R); test: DHS enzyme assay, recombinant DHS1^B4; type: biochemical
T6 construct: without the predicted plastid transit peptide (amino acid residues; 49-525, 34-507, and 52-527, respectively); made in house; host or cells: E. coli
T6 sequence (P29976 49-525 G244R): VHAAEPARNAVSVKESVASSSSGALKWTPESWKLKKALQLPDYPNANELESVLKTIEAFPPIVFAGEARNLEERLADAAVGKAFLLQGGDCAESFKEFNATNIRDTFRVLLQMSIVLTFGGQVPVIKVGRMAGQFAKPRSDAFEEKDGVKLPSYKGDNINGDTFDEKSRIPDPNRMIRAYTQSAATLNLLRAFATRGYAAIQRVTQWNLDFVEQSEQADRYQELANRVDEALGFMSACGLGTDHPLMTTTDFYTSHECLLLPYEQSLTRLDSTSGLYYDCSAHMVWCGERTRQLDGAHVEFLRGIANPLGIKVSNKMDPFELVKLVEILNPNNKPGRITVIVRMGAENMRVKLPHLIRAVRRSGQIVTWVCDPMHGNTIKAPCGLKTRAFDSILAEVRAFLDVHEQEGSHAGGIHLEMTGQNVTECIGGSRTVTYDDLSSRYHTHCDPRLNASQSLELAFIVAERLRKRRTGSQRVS
Method: as §1, §2

Compound	inhibition of DHS2^A4 activity (DHS2^A4)	inhibition of DHS2^A4 [1]	inhibition of DHS2 [2]	other results
Nc1ccccc1C(=O)[O-].[Na+] [Anthranilate]				effect on DHS1 activity (effector screening) (DHS1^WT; FIG. 2D): did not affect the activity; effect on DHS2 activity (effector screening) (DHS2^WT; FIG. 2D): slight reduction
O=C(O)C(=O)CC1(C(=O)O)C=CC(O)C=C1 (centres unmarked) [prephenate]	still inhibited	still inhibited	slightly inhibit DHS2	
N[C@@H](CC1(C(=O)O)C=CC(O)C=C1)C(=O)O (some centres unmarked) [arogenate]	still inhibited	still inhibited	slightly inhibit DHS2	
OCCc1ccc(O)cc1 [Tyrosol]				inhibition at 1000 µM (DHS2^WT; effector at 1 mM): ~30%
O=C(O)C1=C[C@@H](O)[C@@H](O)[C@H](O)C1 [shikimate]	still inhibited	still inhibited	slightly inhibit DHS2	
O=C(O)CCc1c[nH]c2ccccc12 [Indole-3-propionic acid]				pIC50 (DHS1^WT): 2.69; pIC50 (DHS1^B4): 2.70
